Source: US20260250290A1 (BRISTOL-MYERS SQUIBB COMPANY, priority 2023, published 2026)

target: T1, full length SGK1 (Homo sapiens, UniProt O00141); test: SGK1 inhibition Assay A (Caliper LabChip electrophoretic separation of fluorescent peptide substrate and phosphorylated product); type: biochemical; details: Assay A; 20 μM ATP, 40 min incubation; read-out: SGK1 IC50
T1 construct: 125 μM full length SGK1 (Life Technologies Part #PR7358A); purchased Life Technologies PR7358A
T1 sequence (O00141 1-431): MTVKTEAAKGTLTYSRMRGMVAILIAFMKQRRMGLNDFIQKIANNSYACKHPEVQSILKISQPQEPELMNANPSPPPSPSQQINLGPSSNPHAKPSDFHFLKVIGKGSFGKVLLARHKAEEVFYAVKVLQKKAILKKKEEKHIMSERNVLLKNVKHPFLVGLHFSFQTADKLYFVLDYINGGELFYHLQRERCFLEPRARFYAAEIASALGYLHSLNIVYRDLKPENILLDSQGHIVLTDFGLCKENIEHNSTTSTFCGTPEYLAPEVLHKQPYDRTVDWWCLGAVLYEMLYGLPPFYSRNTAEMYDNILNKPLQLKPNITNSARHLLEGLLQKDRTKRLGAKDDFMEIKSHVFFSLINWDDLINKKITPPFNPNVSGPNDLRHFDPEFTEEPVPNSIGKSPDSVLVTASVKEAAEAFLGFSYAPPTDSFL

IC50 [nM]	Compound
310	CC(=O)N1CC=C(c2cc(N3CCC[C@@H](NC(=O)c4sc(C(F)F)cc4C4CCN(C(C)C)C4)C3)c3c(N)ncnn23)C1 (stereo partly drawn) [Example 399, N-((R)-1-(7-(1-acetyl-2,5-dihydro-1H-pyrrol-3-yl)-4-aminopyrrolo[2,1-f][1,2,4]triazin-5-yl)piperidin-3-yl)-5-(difluoromethyl)-3-(1-isopropylpyrrolidin-3-yl)thiophene-2-carboxamide]
299	N#Cc1ccc(-c2cc(N3CCC[C@@H](NC(=O)c4sc(C(F)F)cc4C4CCNC4)C3)c3c(N)ncnn23)cn1 (stereo partly drawn) [Example 400, N-((R)-1-(4-amino-7-(6-cyanopyridin-3-yl)pyrrolo[2,1-f][1,2,4]triazin-5-yl)piperidin-3-yl)-5-(difluoromethyl)-3-(pyrrolidin-3-yl)thiophene-2-carboxamide]
250	CN1CCC(c2cc(C(F)F)sc2C(=O)N[C@@H]2CCCN(c3cc(-c4ccc(C#N)nc4)n4ncnc(N)c34)C2)C1 (stereo partly drawn) [Example 401, N-((R)-1-(4-amino-7-(6-cyanopyridin-3-yl)pyrrolo [2,1-f][1,2,4]triazin-5-yl)piperidin-3-yl)-5-(difluoromethyl)-3-(1-methylpyrrolidin-3-yl)thiophene-2-carboxamide]
219	CN1CCC(c2cc(C(F)F)sc2C(=O)N[C@@H]2CCCN(c3cc(-c4ccc(C(N)=O)nc4)n4ncnc(N)c34)C2)C1 (stereo partly drawn) [Example 402, 5-(4-amino-5-((3R)-3-(5-(difluoromethyl)-3-(1-methylpyrrolidin-3-yl)thiophene-2-carboxamido)piperidin-1-yl)pyrrolo[2,1-f][1,2,4]triazin-7-yl)picolinamide]
229	CC(C)N1CCC(c2cc(C(F)F)sc2C(=O)N[C@@H]2CCCN(c3cc(-c4ccc(C#N)nc4)n4ncnc(N)c34)C2)C1 (stereo partly drawn) [Example 403, N-((R)-1-(4-amino-7-(6-cyanopyridin-3-yl)pyrrolo[2,1-f][1,2,4]triazin-5-yl)piperidin-3-yl)-5-(difluoromethyl)-3-(1-isopropylpyrrolidin-3-yl)thiophene-2-carboxamide]
254	CC(C)N1CCC(c2cc(C(F)F)sc2C(=O)N[C@@H]2CCCN(c3cc(-c4ccc(C(N)=O)nc4)n4ncnc(N)c34)C2)C1 (stereo partly drawn) [Example 404, 5-(4-amino-5-((3R)-3-(5-(difluoromethyl)-3-(1-isopropylpyrrolidin-3-yl)thiophene-2-carboxamido)piperidin-1-yl)pyrrolo[2,1-f][1,2,4]triazin-7-yl)picolinamide]
304	CC(=O)N1CC=C(c2cc(N3CCC[C@@H](NC(=O)c4sc(C(F)F)cc4C4CCNC4)C3)c3c(N)ncnn23)C1 (stereo partly drawn) [Example 405, N-((R)-1-(7-(1-acetyl-2,5-dihydro-1H-pyrrol-3-yl)-4-aminopyrrolo[2,1-f][1,2,4]triazin-5-yl)piperidin-3-yl)-5-(difluoromethyl)-3-(pyrrolidin-3-yl)thiophene-2-carboxamide]
309	CC(=O)N1CC=C(c2cc(N3CCC[C@@H](NC(=O)c4sc(C(F)F)cc4C4CCN(C)C4)C3)c3c(N)ncnn23)C1 (stereo partly drawn) [Example 406, N-((R)-1-(7-(1-acetyl-2,5-dihydro-1H-pyrrol-3-yl)-4-aminopyrrolo[2,1-f][1,2,4]triazin-5-yl)piperidin-3-yl)-5-(difluoromethyl)-3-(1-methylpyrrolidin-3-yl)thiophene-2-carboxamide]
322	CC(=O)N1CC=C(c2cc(N3CCC[C@@H](NC(=O)c4sc(C(F)F)cc4C4CCN(C(C)C)C4)C3)c3c(N)ncnn23)C1 (stereo partly drawn) [Example 407, N-((R)-1-(7-(1-acetyl-2,5-dihydro-1H-pyrrol-3-yl)-4-aminopyrrolo[2,1-f][1,2,4]triazin-5-yl)piperidin-3-yl)-5-(difluoromethyl)-3-(1-isopropylpyrrolidin-3-yl)thiophene-2-carboxamide]
22	CCN(CC)CCOc1cc(C(F)F)sc1C(=O)N[C@@H]1CCCN(c2cc(C3=CCN(C(=O)OC)C3)n3ncnc(N)c23)C1 [Example 408, methyl (R)-3-(4-amino-5-(3-(3-(2-(diethylamino)ethoxy)-5-(difluoromethyl)thiophene-2-carboxamido)piperidin-1-yl)pyrrolo[2,1-f][1,2,4]triazin-7-yl)-2,5-dihydro-1H-pyrrole-1-carboxylate]
24	CCN(CC)CCOc1cc(C(F)F)sc1C(=O)N[C@@H]1CCCN(c2cc(C3=CCN(C(C)=O)C3)n3ncnc(N)c23)C1 [Example 409, (R)-N-(1-(7-(1-acetyl-2,5-dihydro-1H-pyrrol-3-yl)-4-aminopyrrolo[2,1-f][1,2,4]triazin-5-yl)piperidin-3-yl)-3-(2-(diethylamino)ethoxy)-5-(difluoromethyl) thiophene-2-carboxamide]
198	CCN(CC)CCOc1cc(C(F)F)sc1C(=O)N[C@@H]1CCCN(c2cc(-c3cncnc3)n3ncnc(N)c23)C1 [Example 410, (R)-N-(1-(4-amino-7-(pyrimidin-5-yl)pyrrolo[2,1-f] [1,2,4]triazin-5-yl)piperidin-3-yl)-3-(2-(diethylamino)ethoxy)-5-(difluoromethyl) thiophene-2-carboxamide]
5	COC(=O)N1CC=C(c2cc(N3CCC[C@@H](NC(=O)c4sc(C(F)F)cc4OC4CCN(C(C)=O)CC4)C3)c3c(N)ncnn23)C1 [Example 411, methyl (R)-3-(5-(3-(3-((1-acetylpiperidin-4-yl)oxy)-5-(difluoromethyl)thiophene-2-carboxamido)piperidin-1-yl)-4-aminopyrrolo[2,1-f][1,2,4]triazin-7-yl)-2,5-dihydro-1H-pyrrole-1-carboxylate]

More lines, now with the values behind:

Compound	IC50 [nM]
COC(=O)N1CC=C(c2cc(N3CCC[C@@H](NC(=O)c4sc(C5CC5)cc4OC4CNC4)C3)c3c(N)ncnn23)C1 [Example 388, methyl (R)-3-(4-amino-5-(3-(3-(azetidin-3-yloxy)-5-cyclopropylthiophene-2-carboxamido)piperidin-1-yl)pyrrolo[2,1-f][1,2,4]triazin-7-yl)-2,5-dihydro-1H-pyrrole-1-carboxylate]	3
NC(=O)c1ccc(-c2cc(N3CCC[C@@H](NC(=O)c4sc(C5CC5)cc4OC4CNC4)C3)c3c(N)ncnn23)cc1F [Example 389, (R)—N-(1-(4-amino-7-(4-carbamoyl-3-fluorophenyl)pyrrolo[2,1-f][1,2,4]triazin-5-yl)piperidin-3-yl)-3-(azetidin-3-yloxy)-5-cyclopropylthiophene-2-carboxamide]	0.4
COc1ccc(-n2cc(OCCN(C)C)c(C(=O)N[C@@H]3CCCN(c4cc(-c5ccc(C#N)nc5)n5ncnc(N)c45)C3)n2)cc1 [Example 392]	151
CC(=O)N1CC=C(c2cc(N3CCC[C@@H](NC(=O)c4sc(C(F)F)cc4C4CCNCC4)C3)c3c(N)ncnn23)C1 [Example 393E, (R)—N-(1-(7-(1-acetyl-2,5-dihydro-1H-pyrrol-3-yl)-4-aminopyrrolo[2,1-f][1,2,4]triazin-5-yl)piperidin-3-yl)-5-(difluoromethyl)-3-(piperidin-4-yl)thiophene-2-carboxamide]	162
CC(=O)N1CC=C(c2cc(N3CCC[C@@H](NC(=O)c4sc(C(F)F)cc4C4CCN(C)CC4)C3)c3c(N)ncnn23)C1 [Example 393]	197
CC(=O)N1CC=C(c2cc(N3CCC[C@@H](NC(=O)c4sc(C(F)F)cc4C4CCN(C(C)C)CC4)C3)c3c(N)ncnn23)C1 [Example 394, (R)-N-(1-(7-(1-acetyl-2,5-dihydro-1H-pyrrol-3-yl)-4-aminopyrrolo[2,1-f][1,2,4]triazin-5-yl)piperidin-3-yl)-5-(difluoromethyl)-3-(1-isopropylpiperidin-4-yl)thiophene-2-]	249
N#Cc1ccc(-c2cc(N3CCC[C@@H](NC(=O)c4sc(C(F)F)cc4C4CCNCC4)C3)c3c(N)ncnn23)cn1 [Example 395, (R)-N-(1-(4-amino-7-(6-cyanopyridin-3-yl)pyrrolo[2,1-f][1,2,4]triazin-5-yl)piperidin-3-yl)-5-(difluoromethyl)-3-(piperidin-4-yl)thiophene-2-carboxamide]	210
CN1CCC(c2cc(C(F)F)sc2C(=O)N[C@@H]2CCCN(c3cc(-c4ccc(C#N)nc4)n4ncnc(N)c34)C2)CC1 [Example 396, (R)-N-(1-(4-amino-7-(6-cyanopyridin-3-yl)pyrrolo[2,1-f][1,2,4]triazin-5-yl)piperidin-3-yl)-5-(difluoromethyl)-3-(1-methylpiperidin-4-yl)thiophene-2-carboxamide]	146
CC(C)N1CCC(c2cc(C(F)F)sc2C(=O)N[C@@H]2CCCN(c3cc(-c4ccc(C#N)nc4)n4ncnc(N)c34)C2)CC1 [Example 397, (R)-N-(1-(4-amino-7-(6-cyanopyridin-3-yl)pyrrolo[2,1-f][1,2,4]triazin-5-yl)piperidin-3-yl)-5-(difluoromethyl)-3-(1-isopropylpiperidin-4-yl)thiophene-2-carboxamide]	134
CC(=O)N1CC=C(c2cc(N3CCC[C@@H](NC(=O)c4sc(C(F)F)cc4C4CCN(C)C4)C3)c3c(N)ncnn23)C1 (stereo partly drawn) [Example 398, N—((R)-1-(7-(1-acetyl-2,5-dihydro-1H-pyrrol-3-yl)-4-aminopyrrolo[2,1-f][1,2,4]triazin-5-yl)piperidin-3-yl)-5-(difluoromethyl)-3-(1-methylpyrrolidin-3-yl)thiophene-2-carboxamide]	246
